Results taken from US20230373934A1, “ANDROGEN RECEPTOR MODULATORS AND METHODS FOR THEIR USE” (ESSA Pharma, Inc., priority 2022, published 2023).
pIC50: −log10 of the molar value.

Target: T1, androgen receptor (AR) (Homo sapiens, UniProt P10275, T878A)
T1 construct: endogenous in cells; host or cells: LNCaP
T1 sequence (P10275 1-920 T878A): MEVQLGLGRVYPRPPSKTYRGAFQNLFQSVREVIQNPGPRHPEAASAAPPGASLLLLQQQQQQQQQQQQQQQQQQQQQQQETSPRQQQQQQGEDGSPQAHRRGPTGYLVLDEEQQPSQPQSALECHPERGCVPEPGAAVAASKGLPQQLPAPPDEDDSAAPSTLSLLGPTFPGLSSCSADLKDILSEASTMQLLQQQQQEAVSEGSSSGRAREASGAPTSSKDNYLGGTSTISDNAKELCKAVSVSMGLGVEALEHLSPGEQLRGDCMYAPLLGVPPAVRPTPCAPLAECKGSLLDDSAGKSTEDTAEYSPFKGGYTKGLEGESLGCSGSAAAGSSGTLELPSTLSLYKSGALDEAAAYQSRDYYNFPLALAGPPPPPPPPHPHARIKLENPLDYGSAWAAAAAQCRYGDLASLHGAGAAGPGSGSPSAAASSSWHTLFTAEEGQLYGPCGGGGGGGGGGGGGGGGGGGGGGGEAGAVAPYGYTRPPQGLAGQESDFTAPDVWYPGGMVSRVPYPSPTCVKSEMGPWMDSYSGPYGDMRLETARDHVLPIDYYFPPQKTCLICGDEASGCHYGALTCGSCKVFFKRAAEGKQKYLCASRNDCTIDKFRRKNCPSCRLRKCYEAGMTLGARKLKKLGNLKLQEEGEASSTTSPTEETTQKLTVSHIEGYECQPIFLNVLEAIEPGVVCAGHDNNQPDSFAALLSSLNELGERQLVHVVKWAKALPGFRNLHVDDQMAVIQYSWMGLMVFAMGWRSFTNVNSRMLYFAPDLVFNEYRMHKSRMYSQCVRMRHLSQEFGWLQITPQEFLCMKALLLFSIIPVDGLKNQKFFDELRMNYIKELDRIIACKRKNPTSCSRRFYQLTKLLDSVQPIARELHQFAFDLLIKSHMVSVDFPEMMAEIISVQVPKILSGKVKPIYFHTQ
Assay: Androgen-induced PSA-luciferase assay, Luciferase Assay A (LNCaP transiently transfected with PSA (6.1 kb)-luciferase reporter)
Assay type: cell-based
Conditions: LNCaP cells, 1 h pretreatment, R1881 (1 nM) 24 h, read-out: PSA-Luc IC50 Range
Experimental: The PSA (6.1 kb)-luciferase reporter contains functional AREs (androgen response elements) to which AR binds in response to androgen to induce luciferase activity. LNCaP cells were transiently transfected with the PSA (6.1 kb)-luciferase reporter for 24 h, and then pretreated with vehicle (DMSO) or indicated concentration of representative compounds for one hour prior to the addition of synthetic androgen, R1881 (1 nM). After 24 h of incubation with R1881, the cells were harvested, and relative luciferase activities were determined (FIG. 1). To determine the IC50, treatments were normalized to vehicle control activity induced by R1881 (Table 2).
Luciferase Assay A: Cells were lysed using Passive Lysis Buffer (Promega) and then collected into V-bottom 96-well tissue culture plates. Lysates were centrifuged at 4° C. for 5 minutes at 3000 rpm. To measure luminescence of LNCaP cell lysates the Firefly Luciferase Assay System (Promega) was employed, according to manufacturer's protocol. Relative luminescence units (RLU) in cell lysates were detected for 10 seconds using Promega GloMax-Multi Detection Luminometer (Promega). Values were normalized to protein content. GraphPad Prism graphing software was used to calculate IC50 values. Luciferase Assay A was run for all compounds in Table 2 unless otherwise noted below.
Statistical analyses were performed using GraphPad Prism (Version 6.01 for Windows; La Jolla, CA, USA). Comparisons between treatment and control groups were compared using Two-Way ANOVA with post-hoc Dunnett's and Tukey's tests. Differences were considered statistically significant at P values less than 0.05.

| pIC50 | SMILES |
| --- | --- |
| 5.70 to 6.30 | CS(=O)(=O)NC1CN(c2ccc(-c3ccc(Oc4cc(Cl)c(OCCCl)c(C#N)c4)cc3)cn2)C1 [Compound A38] |
| 5.70 to 6.30 | CS(=O)(=O)NC12CC(n3cc(-c4ccc(Oc5cc(Cl)c(OCCCl)c(C#N)c5)cc4)cn3)(C1)C2 [Compound A99] |
| < 5.70 | CS(=O)(=O)N1CCc2cc(-c3ccc(Oc4cc(Cl)c(OCCCl)c(C#N)c4)cc3)ccc2C1 [Compound A120] |
| 5.70 to 6.30 | CC(C)(c1ccc(-c2cnc(N3CCC34CN(S(C)(=O)=O)C4)nc2)cc1)c1cc(Cl)c(OCCCl)c(C#N)c1 [Compound A138] |
| 5.70 to 6.30 | COc1c(Cl)cc(N(CC(F)(F)F)c2ccc(-c3ccc4nc(NS(C)(=O)=O)cnc4c3)cc2)cc1C#N [Compound A67] |
| 5.70 to 6.30 | CC(C)(c1ccc(OCc2ccnc(NS(C)(=O)=O)n2)cc1)c1cc(Cl)c(OC2CC2)c(C#N)c1 [Compound A62] |
| 5.70 to 6.30 | CC(C)(c1ccc(-c2cnc(CNS(C)(=O)=O)nc2)cc1)c1cc(Cl)c(OCCCl)c(C#N)c1 [Compound A4] |
| < 5.70 | CC(C)(c1ccc(N2CCN(C3CC(NS(C)(=O)=O)C3)CC2)cc1)c1cc(Cl)c(OCCCl)c(C#N)c1 (stereo not drawn) [Compound A48] |
| 5.70 to 6.30 | CS(=O)(=O)Nc1cnc2cc(-c3ccc(Oc4cc(F)c(OCCCl)c(C#N)c4)cc3)ccc2n1 [Compound A155] |
| < 5.70 | CC(C)(c1ccc(OC[C@]2(C)C[C@@H](NS(C)(=O)=O)C2)cc1)c1cc(Cl)c(OCCCl)c(C#N)c1 [Compound A25] |
| 5.70 to 6.30 | CC(C)(c1ccc(-c2cnc(N3CC(CNS(C)(=O)=O)C3)nc2)cc1)c1cc(Cl)c(OCCCl)c(C#N)c1 [Compound A95] |
| 5.70 to 6.30 | CC(C)(c1ccc(Oc2ccnc(N3CC(NS(C)(=O)=O)C3)n2)cc1)c1cc(Cl)c(OCCCl)c(C#N)c1 [Compound A87] |
| 5.70 to 6.30 | CC(C)(c1ccc(-c2ccc(N3CC(NS(C)(=O)=O)C3)nn2)cc1)c1cc(Cl)c(OCCCl)c(C#N)c1 [Compound A69] |
| < 5.70 | CC(C)(c1ccc(OCc2ccnc(NS(C)(=O)=O)n2)cc1)c1cc(Cl)c(OC2COC2)c(C#N)c1 [Compound A56] |
| 5.70 to 6.30 | CC(C)(c1ccc(-c2ccc(N3CCN(S(C)(=O)=O)CC3)nc2)cc1)c1cc(Cl)c(OCCCl)c(C#N)c1 [Compound A60] |
| 5.70 to 6.30 | CC(C)(c1ccc(-c2cnc(CNS(C)(=O)=O)cn2)cc1)c1cc(Cl)c(OCCCl)c(C#N)c1 [Compound A2] |
| 5.70 to 6.30 | Cn1ccc(S(=O)(=O)Nc2nccc(COc3ccc(C(C)(C)c4cc(Cl)c(OCCCl)c(C#N)c4)cc3)n2)n1 [Compound A105] |
| < 5.70 | CS(=O)(=O)NC1CN(CCc2ccc(Oc3cc(Cl)c(OCCCl)c(C#N)c3)cc2)C1 [Compound A7] |
| 5.70 to 6.30 | CC(C)(c1ccc(OC[C@H]2C[C@H](CNS(C)(=O)=O)C2)cc1)c1cc(Cl)c(OCCCl)c(C#N)c1 [Compound A64] |
| > 6.30 | CC(C)(c1ccc(-c2ccc(NC3CN(S(C)(=O)=O)C3)nc2)cc1)c1cc(Cl)c(OCCCl)c(C#N)c1 [Compound A53] |
| < 5.70 | CC(C)(c1ccc(O[C@H]2CC[C@H](NS(C)(=O)=O)CC2)cc1)c1cc(Cl)c(OCCCl)c(C#N)c1 [Compound A33] |
| < 5.70 | CC(C)(c1ccc(-c2ccnc(N3CC(NS(C)(=O)=O)C3)n2)cc1)c1cc(Cl)c(OCCCl)c(C#N)c1 [Compound A40] |
| < 5.70 | CC(C)(c1ccc(OCc2ccnc(NS(C)(=O)=O)n2)cc1)c1cc(Cl)c(OCCN2C(=O)CCCC2=O)c(C#N)c1 [Compound A180] |
| 5.70 to 6.30 | CC(C)(c1ccc(OCc2ccnc(NS(C)(=O)=O)n2)cc1)c1cc(Cl)c(CCCl)c(C#N)c1 [Compound A136] |
| < 5.70 | CC(C)(c1ccc(N2CCOC(CCNS(C)(=O)=O)C2)cc1)c1cc(Cl)c(OCCCl)c(C#N)c1 (stereo not drawn) [Compound A31] |
| 5.70 to 6.30 | CC(C)(c1ccc(OCc2ccnc(NS(=O)(=O)c3ccsc3)n2)cc1)c1cc(Cl)c(OCCCl)c(C#N)c1 [Compound A101] |

| pIC50 | SMILES |
| --- | --- |
| 5.70 to 6.30 | CC(C)(C)OC(=O)N1CCN(Cc2cc(C(C)(C)c3cc(Cl)c(OCCCl)c(C#N)c3)ccc2OCc2ccnc(NS(C)(=O)=O)n2)CC1 [Compound A112] |
| 5.70 to 6.30 | CC(C)(c1ccc(-n2cc(N3CC(NS(C)(=O)=O)C3)cn2)cc1)c1cc(Cl)c(OCCCl)c(C#N)c1 [Compound A45] |
| 5.70 to 6.30 | CC(C)(c1ccc(-c2ccc3c(c2)COC32CN(S(C)(=O)=O)C2)cc1)c1cc(Cl)c(OCCCl)c(C#N)c1 [Compound A10] |
| 5.70 to 6.30 | CC(C)(c1ccc(OCc2ccnc(NS(=O)(=O)c3ccoc3)n2)cc1)c1cc(Cl)c(OCCCl)c(C#N)c1 [Compound A103] |
| < 5.70 | CS(=O)(=O)Nc1nccc(COc2ccc(C(=O)c3cc(Cl)c(OCCCl)c(C#N)c3)cc2)n1 [Compound A128] |
| 5.70 to 6.30 | CC(C)(c1ccc(OCc2ccnc(NS(C)(=O)=O)n2)cc1)c1cc(Cl)c(N2CCCC(F)(F)C2)c(C#N)c1 [Compound A152] |
| 5.70 to 6.30 | CC(C)(c1ccc(OCc2ccnc(NS(=O)(=O)c3ccccn3)n2)cc1)c1cc(Cl)c(OCCCl)c(C#N)c1 [Compound A110] |
| 5.70 to 6.30 | CC(C)(c1ccc(OCc2ccnc(NS(C)(=O)=O)n2)cc1)c1cc(Cl)c(OC2CCC2)c(C#N)c1 [Compound A52] |
| < 5.70 | CC(C)(c1ccc(OCc2ccnc(-n3cc(S(N)(=O)=O)cn3)n2)cc1)c1cc(Cl)c(OCCCl)c(C#N)c1 [Compound A104] |
| 5.70 to 6.30 | CC(C)(c1ccc(-c2cnc(NC3CN(S(C)(=O)=O)C3)nc2)cc1)c1cc(Cl)c(OCCCl)c(C#N)c1 [Compound A76] |
| < 5.70 | CC(C)(c1cc(Cl)c(OCCCl)c(C#N)c1)c1ccc(OCc2ccnc(NS(C)(=O)=O)n2)c(CO)c1 [Compound A119] |
| 5.70 to 6.30 | CC(C)(c1ccc(OCc2ccnc(NS(C)(=O)=O)n2)cc1)c1cc(Cl)c(CN2CC(F)(F)C2)c(Cl)c1 [Compound A166] |
| 5.70 to 6.30 | CN(c1ccc(OCc2ccnc(NS(C)(=O)=O)n2)cc1)c1cc(Cl)c(OCCCl)c(C#N)c1 [Compound A162] |
| < 5.70 | CC(C)(c1cc(Cl)c(OCCCl)c(C#N)c1)c1ccc(OCc2ccnc(NS(C)(=O)=O)n2)c(CN2CCNCC2)c1 [Compound A113] |
| < 5.70 | CC(C)(c1ccc(OCc2ccnc(NS(C)(=O)=O)n2)cc1)c1cc(Cl)c(OCc2cnccn2)c(C#N)c1 [Compound A181] |
| < 5.70 | CC(C)(c1ccc(OCc2ccnc(NS(C)(=O)=O)n2)cc1)c1cc(Cl)c(CCN2CC(O)C2)c(C#N)c1 [Compound A169] |
| 5.70 to 6.30 | CC(C)(c1ccc(OCc2ccnc(-n3cnc(S(N)(=O)=O)c3)n2)cc1)c1cc(Cl)c(OCCCl)c(C#N)c1 [Compound A106] |
| > 6.30 | CC(C)(c1ccc(N2CCOC3(CCN(S(C)(=O)=O)CC3)C2)cc1)c1cc(Cl)c(OCCCl)c(C#N)c1 [Compound A32] |
| < 5.70 | CC(C)(c1ccc(OCc2ccnc(NS(C)(=O)=O)n2)cc1)c1cc(Cl)c(OCCNS(C)(=O)=O)c(C#N)c1 [Compound A183] |
| 5.70 to 6.30 | CC(C)(c1ccc(Oc2cnc(CNS(C)(=O)=O)nc2)cc1)c1cc(Cl)c(OCCCl)c(C#N)c1 [Compound A86] |
| 5.70 to 6.30 | CC(C)(c1ccc(OCc2ccc(F)c(NS(C)(=O)=O)n2)cc1)c1cc(Cl)c(OCCCl)c(C#N)c1 [Compound A125] |
| > 6.30 | CS(=O)(=O)NCC1CN(c2ncc(-c3ccc(Oc4cc(Cl)c(OCCCl)c(C#N)c4)cc3)cn2)C1 [Compound A96] |
| 5.70 to 6.30 | C=Cc1c(Cl)cc(C(C)(C)c2ccc(OCc3ccnc(NS(C)(=O)=O)n3)cc2)cc1C#N [Compound A179] |
| < 5.70 | CN(c1ccc(OCc2ccnc(NS(C)(=O)=O)n2)cc1)c1cc(C#N)c(OCCCl)cn1 [Compound A171] |
| < 5.70 | CS(=O)(=O)Nc1cnc2cc(-c3ncc(Oc4cc(Cl)c(OCCCl)c(C#N)c4)cn3)ccc2n1 [Compound A123] |
